Data set [1] in a line: One-photon fluorescence intensity as a function of pH. Conditions: biologically relevant pH; 1 μM probe, 30 mM MOPS, 100 mM KCl. The data set is classed as physicochemical. The procedure:
FIGS. 8a and 8b show the one-photon fluorescence intensities of AZn1 and AZn2 (1 μM for each), respectively, as a function of pH when free Zn^2+ were absent (∘) and present at a concentration of 1 μM (▪) in mixed solutions of 30 mM MOPS and 100 mM KCl.

The subject of a further data set is 293 cells. Briefly: Two-photon microscopy of probe-labeled 293 cells. Conditions: for TPEF of labeled cells collected at 360-460 nm / TPEF of labeled cells collected at 500-620 nm: 2 μM probe, excitation 780 nm. The data set is classed as cell-based. The procedure:
293 cells were incubated in DMEM (WelGene) supplemented with 10% FBS (WelGene), penicillin (100 unit/ml) and streptomycin (100 μg/ml).
Two days before imaging, the cells were transferred to glass-bottomed dishes (MatTek) and plated thereon. For labeling, the growth medium was replaced with FBS-free DMEM. The cells were incubated under 5% CO2, 37° C., using a 2 μM sensor for 30 minutes, washed three times with phosphate-buffered saline (PBS; Gibco), and further incubated in a colorless serum-free medium. Meanwhile, primary cortical cultures were taken from cerebral cortices of 1-day-old rats (Sprague-Dawley (SD)). The cerebral cortices were dissociated in Hank's balanced salt solution (HBSS; Gibco BRL, Gaithersburg, Md., USA) containing 1 U/ml papain (Worthington Biochemical Corporation, NJ, USA), plated at a density of 100 to 200 cells/mm^2 on poly-D-lysine and laminin-coated glass cover slips, and maintained in Neurobasal media (Gibco) supplemented with 2% B-27 (Gibco) and penicillin/streptomycin in a CO2 incubator at 37° C. After […] 7-15 days, the cortical cultures were washed three times with PBS and incubated in the presence of AZn2 (2 μM) in PBS at 37° C. for 30 minutes.
Two-photon fluorescence microscopy images of cells and tissue labeled with AZn2 were obtained with spectral confocal and multiphoton microscopes (Leica TCS SP2) with a ×100 oil objective and numerical aperture (NA)=1.30. The two-photon fluorescence microscopy images were obtained by exciting the two-photon probe with a mode-locked titanium-sapphire laser source (Coherent Chameleon, 90 MHz, 200 fs) set at wavelength of 780 nm and an output power of 1,230 mW, which corresponded to approximately 10 mW average power in the focal plane. To obtain images at 360-460 nm and 500-620 nm range, internal PMTs were used to collect the signals in an 8 bit unsigned 512×512 pixels at 400 Hz scan speed.
Moreover, because the fluorescence intensities of the two-photon probes increase slightly at pH<4 (FIGS. 8a and 8b), there is a possibility that the probes in the acidic vesicles might partially contribute to the TPM images. To rule out such possibility, 293 cells and primary cortical cultures were co-stained with AZn2 and LysoTracker Red (LTR), a well known one-photon fluorescent probe for the acidic vesicles, and the images were co-localized.
More specifically, (a) and (f) are bright field images, (b) and (g) are pseudo colored images of the AZn2-labeled 293 cells collected at 360-460 nm, (c) and (h) are pseudo colored images of the AZn2-labeled 293 cells collected at 500-580 nm, (d) and (i) are OPM images of the LTR-labeled 293 cells collected at 600-650 nm, and (e) and (j) are co-localized images. The one-photon and two-photon excitations were performed at 543 nm and 780 nm, respectively, the scale bar is 30 μm, and the images shown are representative images from replicate experiments (n=5).
FIG. 13 is images of AZn1- and LTR (2 μM for each)-labeled 293 cells: (a)-(e) and (f)-(j) are images of the labeled cells before and after addition of 100 μM TPEN to the imaging solution, respectively. More specifically, (a) and (f) are bright field images; (b) and (g) are pseudo colored images of the AZn1-labeled 293 cells collected at 360-460 nm; (c) and (h) are pseudo colored images of the AZn1-labeled 293 cells collected at 500-580 nm; (d) and (i) are OPM images of the LTR-labeled 293 cells collected at 600-650 nm; and (e) and (j) are co-localized images. […]

For `Nc1ccc(NCCN(Cc2ccccn2)Cc2ccccn2)cc1` [AZn1], in data set [1], the “pH sensitivity of fluorescence” value is “pH insensitivity”. Further, in the data set with 293 cells, the “TPEF of labeled cells collected at 360-460 nm” value is on record as “no TPEF” and the “TPEF of labeled cells collected at 500-620 nm” value is reported as “appreciable TPEF”.
With `COc1cc(NC(=O)CN(C)c2ccc3cc(C(C)=O)ccc3c2)ccc1NCCN(Cc1ccccn1)Cc1ccccn1` [AZn2], the “pH sensitivity of fluorescence” value in data set [1] is reported as “pH insensitivity”. Further, in the data set with 293 cells, the “intracellular location of probe” value is recorded as “predominantly located in the cytosolic compartments”, the “TPEF of labeled cells collected at 360-460 nm” value was “no TPEF” and the “TPEF of labeled cells collected at 500-620 nm” value is reported as “appreciable TPEF”.

For the origin of these results see US8129137B2, “Two-photon probe for real-time monitoring of intracellular free zinc ions, method for preparing the probe and method for real-time monitoring of intracellular free zinc ions using the probe” (Korea University Industrial & Academic Collaboration …, priority 2008, dated 2012).
